Data as given in ChEMBL document CHEMBL1667824 (Bioorg Med Chem, 2011).
pKi: −log10 of the molar value.

Key:
Lactoylglutathione lyase [1] = biological target: T1, Lactoylglutathione lyase (Homo sapiens, UniProt Q04760); assay: Inhibition of human recombinant His-tagged glyoxalase 1 expressed in Escherichia coli BL21 (DE3) preincubated for 20 mins by Dixon plot analysis
Lactoylglutathione lyase [2] = biological target: T1, Lactoylglutathione lyase; assay: Inhibition of glyoxalase 1

T1 sequence (Q04760 whole entry): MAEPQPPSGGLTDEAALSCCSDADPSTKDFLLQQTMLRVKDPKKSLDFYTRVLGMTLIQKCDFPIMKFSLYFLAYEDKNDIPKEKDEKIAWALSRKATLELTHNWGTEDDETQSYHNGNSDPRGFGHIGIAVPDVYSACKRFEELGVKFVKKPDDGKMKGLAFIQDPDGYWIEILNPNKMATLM

Compound	pKi (Lactoylglutathione lyase [1])	pKi (Lactoylglutathione lyase [2])
NC(=O)/C=C/c1ccc(F)cc1	2.86	–
COc1cc(/C=C/C(O)=C/C(=O)/C=C/c2ccc[nH]2)ccc1O	4.74	–
CC(=O)C(=Cc1cccc([N+](=O)[O-])c1)C(C)=O	4.04	–
COc1cc(/C=C/C(O)=C/C(C)=O)ccc1O	4.05	–
Cc1ccc(C(=O)c2ccc(CC(=O)O)n2C)cc1 [TOLMETIN]	2.99	4.06
COc1cc(/C=C/C(=O)C(=Cc2ccc(OC)c(OC)c2)C(=O)/C=C/c2ccc(O)c(OC)c2)ccc1O	5.34	–
O=C(/C=C/c1ccc(O)cc1)CC(=O)/C=C/c1ccc(O)cc1 [BISDEMETHOXYCURCUMIN]	4.74	–
CC(C(=O)O)c1cccc(Oc2ccccc2)c1 (configuration not stated) [FENOPROFEN]	3.42	3.40
CCOC(=O)/C(=C\C=C(\C(C)=O)C(=O)OCC)C(C)=O	4.41	–
CC1=C(CC(=O)O)c2cc(F)ccc2/C1=C\c1ccc([S+](C)[O-])cc1 (configuration not stated)	3.86	4.11
COc1ccc(/C=C/C(=O)/C=C(O)/C=C/c2ccc(O)cc2)cc1OC	4.54	–
CC(=O)C(=Cc1ccc([N+](=O)[O-])o1)C(C)=O	4.57	–
CC(C(=O)O)c1cccc(C(=O)c2ccccc2)c1 (configuration not stated) [KETOPROFEN]	3.07	3.38
CCOC(=O)/C(=C\c1cccc([N+](=O)[O-])c1)C(C)=O	4.19	–
COc1ccc2c(c1)c(CC(=O)O)c(C)n2C(=O)c1ccc(Cl)cc1 [INDOMETHACIN]	4.62	4.74
CCOC(=O)/C(=C\c1ccc([N+](=O)[O-])cc1)C(C)=O	3.80	–
COc1ccc(/C=C/C(=O)C(=CO)C(=O)/C=C/c2ccc(OC)cc2)cc1	3.96	–
COc1cc(C=C(C(=O)/C=C/c2ccc(O)c(OC)c2)C(=O)/C=C/c2ccc(O)c(OC)c2)ccc1O	5.44	–
O=C(/C=C(O)/C=C/c1ccco1)/C=C/c1ccco1	2.82	–
O=C(/C=C(O)/C=C/c1ccc(F)cc1)/C=C/c1ccc(F)cc1	5.34	–
COc1ccc(/C=C/C(=O)/C=C(O)/C=C/c2ccc(CO)o2)cc1	4.13	–
O=C(O)C(=Cc1cccc([N+](=O)[O-])c1)C(=O)O	3.37	–
COc1cc(/C=C/C(=O)C(=Cc2cccc(F)c2)C(=O)/C=C/c2ccc(O)c(OC)c2)ccc1O	5.59	–
COc1cc(/C=C/C(=O)C(=Cc2ccc(F)cc2)C(=O)/C=C/c2ccc(O)c(OC)c2)ccc1O	5.49	–
COc1ccc(/C=C/C(=O)C(=Cc2ccc(C=O)c(C=O)c2)C(=O)/C=C/c2ccc(OC)c(OC)c2)cc1OC	5.44	–
Cc1cc(CC(=O)O)n(C)c1C(=O)c1ccc(Cl)cc1 [ZOMEPIRAC]	3.47	3.97
CCOC(=O)/C=C/c1ccc(O)c(OC)c1 [ETHYL FERULATE]	3.41	–
COc1ccc(C=C(C(C)=O)C(C)=O)cc1	3.42	–
COc1ccc2c(c1)c(CC(=O)OCC(=O)O)c(C)n2C(=O)c1ccc(Cl)cc1 [ACEMETACIN]	4.31	4.89
COC(=O)/C=C/c1ccc(F)cc1	2.72	–
